This passage reports IC50 results from patent US12122775B1, “Substituted pyrido[4,3-e]pyrrolo[1,2-a]pyrazines as CK2 inhibitors” (KING FAISAL UNIVERSITY, priority 2024, dated 2024).

The test system of assay [1] is PC3 (prostate). The assay can be described thus: In vitro cytotoxic activity MTT assay, PC3. The settings on record: Homo sapiens, Prostate cell; PC3 (prostate) cells, exposed for 96 hours; read-out: Cytotoxicity activity IC50 (50% inhibition of cell proliferation). Format: cell-based. On the procedure:
(§1) Compounds 1-16 were screened for their in vitro cytotoxic activity utilizing a 3-(4,5-dimethyl-thiazol-2-yl)-2,5-diphenyltetrazolium bromide (MTT) assay against selected cancer human cell lines consisting of PC3 (prostate), HCT116 (colon), A375 (melanoma), H1299 (lung), MIAPaCa-2 (pancreas), HL60 (leukemia), MCF7 (breast), MDA-MB-231 (breast) (T. Mosmann, J. Immunol. Meth., 1983, 65, 55-63). The cells were cultured at 37° C. in RMPI1640 medium supplemented with 10% fetal bovine serum, 50 IU/mL penicillin, and 50 μg/mL streptomycin in a 5% CO2 incubator. All cells were sub-cultured 3 times/week by trypsinisation. Viable cells were seeded and allowed to adhere for 12 hours before a test drug was added in 96-well plates at an initial density of 1.0×10^5 cells/mL. Tumor cell lines were separately exposed to various concentrations of the tested compounds followed by incubation at a temperature of 37° C. during 96 hours inside a medium of fresh RMPI 1640. Cells were subsequently incubated at 37° C. using MTT at 0.5 mg/mL during 4 hours. After removal of supernatant, formazan crystals were dissolved in isopropanol and the optical density was measured at 570 nm. CX-4945 was used as a positive control.

For assay [2], the system named is HCT116 (colon). The assay can be described thus: In vitro cytotoxic activity MTT assay, HCT116. Format: cell-based. The settings on record: Homo sapiens, HCT-116; HCT116 (colon) cells, exposed for 96 hours; read-out: Cytotoxicity activity IC50 (50% inhibition of cell proliferation). Here is the method: as §1
Background: Tetrazolium assays rely on reduction of a dye to a coloured formazan, in cell work by metabolically active cells.

In assay [3] the test system is A375 (melanoma). The assay is described as follows: In vitro cytotoxic activity MTT assay, A375. It is filed as cell-based. The settings on record: Homo sapiens, A-375; A375 (melanoma) cells, exposed for 96 hours; read-out: Cytotoxicity activity IC50 (50% inhibition of cell proliferation). Here is the method:
as §1

Assay [4] concerns H1299 (lung). The assay can be described thus: In vitro cytotoxic activity MTT assay, H1299. It is filed as cell-based. The settings on record: Homo sapiens, NCI-H1299; H1299 (lung) cells, exposed for 96 hours; read-out: Cytotoxicity activity IC50 (50% inhibition of cell proliferation). Here is the method: as §1
Assay [5] deals with MIAPaCa-2 (pancreas). The assay is described as follows: In vitro cytotoxic activity MTT assay, MIAPaCa-2. Format: cell-based. The settings on record: Homo sapiens, MIA PaCa-2; MIAPaCa-2 (pancreas) cells, exposed for 96 hours; read-out: Cytotoxicity activity IC50 (50% inhibition of cell proliferation). On the procedure:
as §1

For assay [6], the system named is HL60 (leukemia). The assay can be described thus: In vitro cytotoxic activity MTT assay, HL60. It is filed as cell-based. The settings on record: Homo sapiens, HL-60; HL60 (leukemia) cells, exposed for 96 hours; read-out: Cytotoxicity activity IC50 (50% inhibition of cell proliferation). On the procedure: as §1
Assay [7] concerns MCF7 (breast). The assay can be described thus: In vitro cytotoxic activity MTT assay, MCF7. It is filed as cell-based. The settings on record: Homo sapiens; MCF7 (breast) cells, exposed for 96 hours; read-out: Cytotoxicity activity IC50 (50% inhibition of cell proliferation). Here is the method: as §1
Assay [8] has as its system MDA-MB-231 (breast). The assay can be described thus: In vitro cytotoxic activity MTT assay, MDA-MB-231. The settings on record: Homo sapiens; MDA-MB-231 (breast) cells, exposed for 96 hours; read-out: Cytotoxicity activity IC50 (50% inhibition of cell proliferation). It is filed as cell-based. Here is the method:
as §1

In assay [9] the target is T1, recombinant human CK2 (RRββ-holoenzyme) (Homo sapiens, UniProt P68400).
T1 construct: purchased Millipore
T1 sequence (P68400 whole entry): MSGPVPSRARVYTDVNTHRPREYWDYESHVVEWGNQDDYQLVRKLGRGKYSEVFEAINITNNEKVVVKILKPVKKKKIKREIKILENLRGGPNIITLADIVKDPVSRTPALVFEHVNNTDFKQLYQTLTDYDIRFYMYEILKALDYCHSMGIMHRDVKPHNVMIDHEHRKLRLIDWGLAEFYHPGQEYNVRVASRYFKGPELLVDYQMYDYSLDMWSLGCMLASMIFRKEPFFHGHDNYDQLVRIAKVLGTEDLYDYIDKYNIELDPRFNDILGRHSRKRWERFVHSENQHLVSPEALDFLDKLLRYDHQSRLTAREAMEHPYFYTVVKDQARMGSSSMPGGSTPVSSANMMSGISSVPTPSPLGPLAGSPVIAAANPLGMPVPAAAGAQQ
T1 sequence (P67870 whole entry partner): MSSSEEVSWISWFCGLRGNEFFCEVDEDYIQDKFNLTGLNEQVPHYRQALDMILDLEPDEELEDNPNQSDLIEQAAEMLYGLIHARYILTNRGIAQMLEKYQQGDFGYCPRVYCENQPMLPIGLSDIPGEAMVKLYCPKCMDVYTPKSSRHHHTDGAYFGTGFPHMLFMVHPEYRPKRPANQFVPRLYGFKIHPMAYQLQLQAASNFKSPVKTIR
The assay is described as follows: CK2 Kinase Assay (radiometric, [γ-33P] ATP). The settings on record: final ATP concentration 15 μM, 10 min at 30° C., eight concentrations; read-out: protein kinase CK2 activity IC50. Format: biochemical. Here is the method: CK2 Kinase Assay was conducted using the protocol as described in Pierre F. et al; J. Med. Chem. 2011, 54, 635-654. The tested compounds in aqueous solution were added at a volume of 10 μL to a reaction mixture comprising 10 μL of assay dilution buffer (ADB; 20 mM MOPS, pH 7.2, 25 mM β-glycerol phosphate, 5 mM EGTA, 1 mM sodium orthovanadate, and 1 mM dithiothreitol), 10 μL of substrate peptide (RRRDDDSDDD, dissolved in ADB at a concentration of 1 mM), 10 μL of recombinant human CK2 (RRββ-holoenzyme, 25 ng dissolved in ADB; Millipore). Reactions were initiated by the addition of 10 μL of ATP solution (90%75 mM MgCl2, 75 μM ATP (final ATP concentration: 15 μM) dissolved in ADB; 10% [γ-33P] ATP (stock 1 mCi/100 μL; 3000 Ci/mmol (Perkin-Elmer) and maintained for 10 min at 30° C. The reactions were quenched with 100 μL of 0.75% phosphoric acid and then transferred to and filtered through a phosphor cellulose filter plate (Millipore). After washing each well five times with 0.75% phosphoric acid, the plate was dried under vacuum for 5 min and, following the addition of 15 μL of scintillation fluid to each well, the residual radioactivity was measured using a Wallac […]. The IC50 values were derived from eight concentrations of test inhibitors.

As to `O=C(O)c1ccn2c1c(Nc1cccc(Cl)c1)nc1ccncc12` [Compound 1, 6-((3-chlorophenyl)amino)pyrido[4,3-e]pyrrolo[1,2-a]pyrazine-7-carboxylic acid], the IC50 amounted to 2800 nM in assay [1]; 1500 nM in [2]; 4600 nM in assay [3]; 2100 nM in assay [4]; 1700 nM in [5]; 3200 nM in assay [6]. In addition, the IC50 in [7] was 5900 nM; in assay [8], 5300 nM; in [9], 91 nM.
